Here are results for 6 compounds from patent publication US20090074876A1, “PEPTIDE COMPOSITION AND A METHOD OF PROMOTING CARTILAGE FORMATION” (Acologix, Inc., priority 2007, published 2009).

Where a SMILES comes first, the peptide text is derived from it.

In data set [1] the test system is osteochondral defect in goat stifle joint. To be noted: in vivo. The protocol: In this study, the use of two different concentrations (See Table 1) of AC-100 in conjunction with a collagen sponge and a control with just the collagen sponge was implanted to evaluate the efficacy of AC-100 in repair of bone and cartilage (osteochondral) defects. The implants were intended to serve as an osteochondral allograft for cellular and matrix ingrowth. Efficacy to repair cartilage was assessed using gross and histological examination of the repair tissue. The primary objective was to determine whether AC-100 modifies and/or improves the healing of the osteochondral defect as compared to the study control group and the natural progression of historical controls using this model. This report describes the in vivo, gross and histological findings at the 12 and 24 weeks time points.
A single full-thickness chondral defects were created in the right hind leg stifle joint. The lesion site was located in the anterior medial femoral condyle. The basic surgical procedure was identical for all subjects. All surgeries were performed under strict asepsis. […]
Postoperative checks were made for any animal displaying signs of postoperative discomfort. […] All treatments were recorded in the appropriate study documentation. […]
Animals were humanely sacrificed at Day 84 (12 weeks) or Day 168 (24 weeks) postoperatively. Bodyweights were recorded immediately prior to sacrifice. […]

Data set [2] deals with human mesenchymal stem cells (hMSC). Briefly: proliferation assay with human mesenchymal stem cells, tritiated thymidine incorporation. It counts as cell-based. To be noted: as compared to the vehicle. Here is the method: The peptide of SEQ ID NO:34 was tested for its proliferation activity on human mesenchymal stem cells as compared to CMP-2 and IGF-1.
The same protocol and positive controls were used in this experiment.
SEQ ID NO:34 was selected for this experiment since the amino acid sequence of this peptide was derived from the corresponding region in rat and mouse MEPE where AC-100 was derived from human MEPE. Furthermore, as compared to all other known mammalian corresponding regions to AC-100, it is the least homologous to AC-100 (the human sequence).

Data set [3] relates to 8 mm diameter defect in the rat parietal bones. Briefly: rat calvaria defect model, bone bridging. The format is in vivo. To be noted: collagen sponge in defect, daily s.c. injections for 6 days, 28 days post-surgery, histology qualitative score; vs saline and AC-100. Here is the method:
AC-101, 102, and 103 were tested for their defect bridging activities as compared to AC-100.
As a next step, necessity of RGD integrin-binding motif (SEQ ID NO:42) and SGDG glycosaminoglycan attachment motif (SEQ ID NO:43) to the bone formation activities was examined by testing the selected peptides synthesized in EXAMPLE 1 in a rat calvaria defect model. In this model an 8 mm diameter defect is created in the rat parietal bones and a collagen sponge cut to size is inserted into the defect. The test article is soaked into the sponge. Sub-cutaneous injections are administered daily for 6 days post-surgery. After 28 days post-surgery the rats are euthanized and the calvariae collected. The degree of bone bridging was determined by histology analysis using a qualitative scoring system. The tested peptides were SEQ ID NO: 22, 23, and 24, which were also encoded as AC-101, AC-102, and AC-103, respectively.
AC-100 that includes both the RGD integrin-binding motif and the SGDG glycosaminoglycan attachment motif was used as a positive control at the optimal dose.

Consider `CC[C@H](C)[C@H](NC(=O)[C@H](CC(=O)O)NC(=O)[C@H](CC(N)=O)NC(=O)[C@H](CC(=O)O)NC(=O)CNC(=O)[C@H](CCCNC(=N)N)NC(=O)[C@H](CCC(=O)O)NC(=O)[C@H](CCC(N)=O)NC(=O)[C@H](CC(C)C)NC(=O)[C@H](CC(=O)O)NC(=O)[C@@H](N)[C@@H](C)O)C(=O)N[C@@H](CO)C(=O)N1CCC[C@H]1C(=O)N[C@@H](Cc1ccccc1)C(=O)N[C@@H](CO)C(=O)NCC(=O)N[C@@H](CC(=O)O)C(=O)NCC(=O)N[C@@H](CCC(N)=O)C(=O)N1CCC[C@H]1C(=O)N[C@@H](Cc1ccccc1)C(=O)N[C@@H](CCCCN)C(=O)N[C@@H](CC(=O)O)C(N)=O` [AC-100] (H-TDLQERGDNDISPFSGDGQPFKD-NH2), for which, in data set [1], the adverse events entry is reported as “No adverse events were identified” and the “inflammatory response in sections” value is “no evidence of an inflammatory response”.

“IGF-1: Insulin-like Growth Factor-1, positive control in hMSC proliferation assay”: in data set [2], the “proliferation activities of the hMSC by tritiated-thymidine incorporation” value is “Significant proliferation activities”.

For PDLLVRGDNDVPPFSGDGQHFMH [SEQ ID NO:34], the “proliferation activities of the hMSC by tritiated-thymidine incorporation” value in data set [2] is “Significant proliferation activities”.

As for TDLQEDGRNDISPFGDGSQPFKD [AC-103], the “degree of bone bridging” value in data set [3] was “improved versus saline treatment alone and was comparable to the activity of AC-100”.

With TDLQEDGRNDISPFSGDGQPFKD [AC-101], in data set [3], the “degree of bone bridging” value was “improved versus saline treatment alone and was comparable to the activity of AC-100”.

As to TDLQERGDNDISPFGDGSQPFKD [AC-102], the “degree of bone bridging” value in data set [3] is “improved versus saline treatment alone and was comparable to the activity of AC-100”.
